Key:
Type in all cases: cell-based
NCI-H226 = assay: SRB growth assay, 2 days exposure, non-small cell lung cancer
Experimental: (§1) Arsenic trioxide (1 mg/ml, 10 mg/ampoule, manufactured by Taylor Pharmaceuticals, Decatur, Ill.) was tested at five concentrations each at 10-fold dilutions, i.e., 10^−5, 10^−6, 10^−7, 10^−8 and 10^−9 μg/ml.
(§2) The in vitro tests were performed by incubating the test cells in the presence of the indicated concentration of arsenic trioxide under standard culture conditions for a designated period of time, which is followed by a sulforhodamine B (SRB) protein assay to estimate cell viability or growth. The cell lines are organized into subpanels according to the origin of the cell lines, e.g., leukemia, breast cancer, etc. A description of the cell lines and method of testing is described in Monk et al. (1997, Anticancer Drug Des. 12:533-41) and Weinstein et al., (1997, Science 275:343-9), which are incorporated herein in their entirety.
(§3) The measurement of an effect is expressed in Percentage Growth (PG). The measured effect of the compound on a cell line is calculated according to one or the other of the following two expressions: If (Mean ODtest−Mean ODzero)≧0. then PG=100×(Mean ODtest−Mean ODzero)/(Mean ODctrl−Mean ODzero) If (Mean ODtest−Mean ODzero)<0. then PG=100×(Mean ODtest−Mean ODzero)/(Mean ODzero where: • Mean ODzero=the average of optical density measurements of SRB-derived color just before exposure of cells to the test compounds; • Mean ODtest=the average of optical density measurements of SRB-derived color after exposure of cells to the test compound for a designated period of time; and • Mean ODctrl=the average of optical density measurements of SRB-derived color after with no exposure of cells to the test compound for a designated period of time
(§4) The first two columns describe the subpanel (e.g., leukemia) and cell line (e.g., CCRF-CEM) involved. The next two columns list the Mean ODzero and Mean ODctrl; the next five columns list the Mean ODtest for each of five different concentrations. Each concentration is expressed as the log10 (molar or μg/ml). The next five columns list the calculated PGs for each concentration. The response parameters GI50, TGI and LC50 are interpolated values representing the concentrations at which the PG is +50, 0, and −50, respectively. Sometimes these response parameters cannot be obtained by interpolation. If, for instance, all of the PGs in a given row exceed +50, then none of the three parameters can be obtained by interpolation. In such a case, the value given for each response parameter is the highest concentration tested and is preceded by a “>” sign. This practice is extended similarly to the other possible situations where a response parameter cannot be obtained by interpolation.
(§5) In the first set, the cells from 56 different cancer cell lines were exposed to five concentrations of arsenic trioxide continuously for two days prior to performing the SRB assay. In the second set, the cells from 50 different cell lines (a subset of the first 56 cell lines, plus the renal cancer cell line 786-0) were exposed continuously for six days prior to the SRB assay.

NCI-H23 = assay: as above
Experimental: as §1, §2, §3, §4, §5

EKVX = assay: as above
Experimental: as §1, §2, §3, §4, §5

A549/ATCC = assay: as above
Experimental: as §1, §2, §3, §4, §5

NCI-H522 = assay: as above
Experimental: as §1, §2, §3, §4, §5

NCI-H460 = assay: as above
Experimental: as §1, §2, §3, §4, §5

NCI-8322M = assay: as above
Experimental: as §1, §2, §3, §4, §5

HOP-62 = assay: as above
Experimental: as §1, §2, §3, §4, §5

HOP-92 = assay: as above
Experimental: as §1, §2, §3, §4, §5

MALME-3M = assay: SRB growth assay, 2 days exposure, melanoma
Experimental: as §1, §2, §3, §4, §5

SK-MEL-5 = assay: SRB growth assay, 2 days exposure, melanoma
Experimental: as §1, §2, §3, §4, §5

M14 = assay: SRB growth assay, 2 days exposure, melanoma
Experimental: as §1, §2, §3, §4, §5

SK-MEL-28 = assay: SRB growth assay, 2 days exposure, melanoma
Experimental: as §1, §2, §3, §4, §5

UACC-62 = assay: SRB growth assay, 2 days exposure, melanoma
Experimental: as §1, §2, §3, §4, §5

## arsenic trioxide
NCI-H226
  TGI: >0.0126 ng/mL
NCI-H226; log10 conc −4.9
  Percent Growth: 92%
NCI-H226; log10 conc −5.9
  Percent Growth: 109%
NCI-H226; log10 conc −6.9
  Percent Growth: 109%
NCI-H226; log10 conc −7.9
  Percent Growth: 96%
NCI-H226; log10 conc −8.9
  Percent Growth: 109%
NCI-H23
  TGI: >0.0126 ng/mL
NCI-H23; log10 conc −4.9
  Percent Growth: 58%
NCI-H23; log10 conc −5.9
  Percent Growth: 101%
NCI-H23; log10 conc −6.9
  Percent Growth: 127%
NCI-H23; log10 conc −7.9
  Percent Growth: 121%
NCI-H23; log10 conc −8.9
  Percent Growth: 115%
EKVX
  TGI: >0.0126 ng/mL
EKVX; log10 conc −4.9
  Percent Growth: 11%
EKVX; log10 conc −5.9
  Percent Growth: 130%
EKVX; log10 conc −6.9
  Percent Growth: 127%
EKVX; log10 conc −7.9
  Percent Growth: 129%
EKVX; log10 conc −8.9
  Percent Growth: 119%
A549/ATCC
  TGI: >0.0126 ng/mL
A549/ATCC; log10 conc −4.9
  Percent Growth: 69%
A549/ATCC; log10 conc −5.9
  Percent Growth: 108%
A549/ATCC; log10 conc −6.9
  Percent Growth: 100%
A549/ATCC; log10 conc −7.9
  Percent Growth: 102%
A549/ATCC; log10 conc −8.9
  Percent Growth: 100%
NCI-H522
  TGI: 0.00708 ng/mL
NCI-H522; log10 conc −4.9
  Percent Growth: −21%
NCI-H522; log10 conc −5.9
  Percent Growth: 63%
NCI-H522; log10 conc −6.9
  Percent Growth: 108%
NCI-H522; log10 conc −7.9
  Percent Growth: 100%
NCI-H522; log10 conc −8.9
  Percent Growth: 129%
NCI-H460
  TGI: >0.0126 ng/mL
NCI-H460; log10 conc −4.9
  Percent Growth: 49%
NCI-H460; log10 conc −5.9
  Percent Growth: 92%
NCI-H460; log10 conc −6.9
  Percent Growth: 100%
NCI-H460; log10 conc −7.9
  Percent Growth: 95%
NCI-H460; log10 conc −8.9
  Percent Growth: 89%
NCI-8322M
  TGI: >0.0126 ng/mL
NCI-8322M; log10 conc −4.9
  Percent Growth: 61%
NCI-8322M; log10 conc −5.9
  Percent Growth: 99%
NCI-8322M; log10 conc −6.9
  Percent Growth: 97%
NCI-8322M; log10 conc −7.9
  Percent Growth: 106%
NCI-8322M; log10 conc −8.9
  Percent Growth: 117%
HOP-62
  TGI: >0.0126 ng/mL
HOP-62; log10 conc −4.9
  Percent Growth: 35%
HOP-62; log10 conc −5.9
  Percent Growth: 97%
HOP-62; log10 conc −6.9
  Percent Growth: 100%
HOP-62; log10 conc −7.9
  Percent Growth: 99%
HOP-62; log10 conc −8.9
  Percent Growth: 97%
HOP-92
  TGI: >0.0126 ng/mL
HOP-92; log10 conc −4.9
  Percent Growth: 31%
HOP-92; log10 conc −5.9
  Percent Growth: 74%
HOP-92; log10 conc −6.9
  Percent Growth: 82%
HOP-92; log10 conc −7.9
  Percent Growth: 92%
HOP-92; log10 conc −8.9
  Percent Growth: 88%
MALME-3M
  TGI: 0.00602 ng/mL
MALME-3M; log10 conc −4.9
  Percent Growth: −42%
MALME-3M; log10 conc −5.9
  Percent Growth: 90%
MALME-3M; log10 conc −6.9
  Percent Growth: 102%
MALME-3M; log10 conc −7.9
  Percent Growth: 123%
MALME-3M; log10 conc −8.9
  Percent Growth: 138%
SK-MEL-5
  TGI: >0.0126 ng/mL
SK-MEL-5; log10 conc −4.9
  Percent Growth: 0%
SK-MEL-5; log10 conc −5.9
  Percent Growth: 78%
SK-MEL-5; log10 conc −6.9
  Percent Growth: 95%
SK-MEL-5; log10 conc −7.9
  Percent Growth: 97%
SK-MEL-5; log10 conc −8.9
  Percent Growth: 96%
M14
  TGI: >0.0126 ng/mL
M14; log10 conc −4.9
  Percent Growth: 3%
M14; log10 conc −5.9
  Percent Growth: 87%
M14; log10 conc −6.9
  Percent Growth: 96%
M14; log10 conc −7.9
  Percent Growth: 105%
M14; log10 conc −8.9
  Percent Growth: 98%
SK-MEL-28
  TGI: >0.0126 ng/mL
SK-MEL-28; log10 conc −4.9
  Percent Growth: 6%
SK-MEL-28; log10 conc −5.9
  Percent Growth: 94%
SK-MEL-28; log10 conc −6.9
  Percent Growth: 101%
SK-MEL-28; log10 conc −7.9
  Percent Growth: 103%
SK-MEL-28; log10 conc −8.9
  Percent Growth: 100%
UACC-62
  TGI: >0.0126 ng/mL
UACC-62; log10 conc −4.9
  Percent Growth: 6%
UACC-62; log10 conc −5.9
  Percent Growth: 96%
UACC-62; log10 conc −6.9
  Percent Growth: 103%
UACC-62; log10 conc −7.9
  Percent Growth: 103%
UACC-62; log10 conc −8.9
  Percent Growth: 104%

From patent US6875451B2, “Compositions and methods for the treatment of primary and metastatic neoplastic diseases using arsenic compounds” (PolaRx Biopharmaceuticals Inc., priority 1997, dated 2005)
